Here are results for three molecules from US20050003008A1, “Method of in vivo drug targeting to solid tumors via acoustically triggered drug delivery in polymeric micelles” (priority 1997, published 2005).

The term IC75 denotes the concentration needed for an effect of 75%.

One data set concerns DNA. Kind of data set: Drug intercalation into DNA (fluorescence drop). In kind it is binding. The conditions noted are these: drug introduced from micellar solution. The source says:
Ruboxyl and doxorubicin encapsulation in PLURONIC micelles restricted not only drug interaction with the cells, but also drug interaction with cell components, e.g. DNA.

In the next data set the test system is A2780 cells. The experiment in a line: Survival of ovarian carcinoma-bearing mice. Format: in vivo. The conditions noted are these: DOX 3 mg/kg intraperitoneally in PLURONIC P-105 micelles, sonication one hour after injection. How it is done:
A2780 cells (1×10^6) were inoculated intraperitoneally. DOX in PBS or PLURONIC P-105 micelles was injected intraperitoneally the next day after cell inoculation. Sonication of the abdominal region was performed one hour after DOX injection.

The subject of data set [1] is drug-sensitive ovarian carcinoma A2780 cells. The experiment in a line: Growth inhibition of drug-sensitive ovarian carcinoma cells (IC75). In kind it is cell-based. How it is done:
(§1) It should be noted that because of the cytostatic action of micelles, the inhibitory concentration IC50 values for drugs become meaningless; for example, upon 3-hour incubation with a drug-free 10% P-105 micelles followed by three days culturing in a PLURONIC-free RPMI 1640 medium, the growth inhibition of both sensitive and resistant cells exceeded 50%. […] For cases like this it would be more informative to compare, e.g., IC75 values.

Data set [2] relates to HL-60 cells. The note with it: combination of micellar delivery and ultrasonication; cited from earlier work.
Data set [3] is described as follows: Ultrasound-triggered drug release from PLURONIC P-105 micelles. Format: physicochemical. The source says: The measurements of the degree of drug release are based on the decrease of DOX fluorescence intensity when DOX is transferred from the hydrophobic environment of micelle cores to the aqueous environment. An argon-ion laser beam of 488 nm was directed to a drug-containing cuvette to excite fluorescence. The emissions were collected using a fiber optic collector and filtered to remove the excitation wavelength. The emissions were quantified using a photodetector, digitized with a 12-bit A/D converter, and stored in a Macintosh computer for further analysis.
Digitized fluorescence intensity data were analyzed to calculate the percent of the drug release from micelles. A fluorescence intensity of a 10 μg/ml DOX solution in PBS (IPBS) was measured first; the PBS solution was then carefully sucked out of the cuvette and replaced with a 10 μg/ml DOX solution in 10% PLURONIC P-105 micelles. Fluorescence of this solution (Imic) was measured, and a difference Imic−IPBS was assumed to correspond to a […] drug release from micelles. Then, ultrasound was switched on, and DOX fluorescence under sonication (Ius) was recorded; if sonication induced partial drug release from micelles into the aqueous environment, Ius was lower than Imic; the “ultrasound on”-“ultrasound off” cycles were repeated several times to check reproducibility. The length of each ultrasound exposure cycle was 1 to 2 minutes. […] The degree of drug release (DDR) was calculated as follows: DDR={[Imic−Ius]/[Imic−IPBS]}×100

The subject of another data set is A2780 tumor. Kind of data set: In vivo DOX uptake by sonicated A2780 tumor.
Data set [4] relates to MDR ovarian carcinoma A2780/ADR cells. The experiment in a line: Growth inhibition / cell kill of MDR ovarian carcinoma cells with Pluronic and ultrasound. The note with it: 10-min sonication by 67-kHz ultrasound. Format: cell-based.
In data set [5] the test system is HL-60 cells. The experiment in a line: Intracellular drug uptake by HL-60 cells (lysate fluorescence). In kind it is cell-based. How it is done: Intracellular uptake of doxorubicin and ruboxyl was measured using a fluorescence technique wherein compounds were excited at 488 nm and technical emission spectra were recorded at 510-700 nm. Two sets of samples were studied, incubated, and sonicated. Ultrasound was generated by a Sonicor SC100 sonication bath operating at 70 kHz and 37° C. Power density was controlled by adjusting the input voltage and was measured with a hydrophone.
For the first set of samples, the cells were incubated at 37° C. with doxorubicin or ruboxyl, which were either dissolved in the RPMI medium or PBS, or the drugs were solubilized in PLURONIC P-105 solutions of various concentrations. For the second set of samples, the cells were sonicated by 70 kHz ultrasound at 37° C. to assess the effect of ultrasound on the drug uptake from molecular and micellar solutions. After being incubated/sonicated with and without the drug, the cells were centrifuged, washed twice with cold PBS, resuspended in PBS, and the fluorescence spectra of cell suspensions were recorded. The fluorescence intensity of the untreated cells was subtracted from that of the drug-treated cells. Because drug fluorescence within the cells was substantially quenched, drug uptake was quantified by lysing the cells by incubating them with 1 wt % SDS solution for 1-2 hours at 37° C. This process transferred the drug from cellular components to SDS micelles. […] Upon the completion of cell lysis, fluorescence spectra of the lysates were recorded. To quantify the concentration of lysed cells, cell lysates were filtered through 0.2 μm filters, and their optical densities were measured by protein absorbance at 280 nm (OD 280 nm). […] The fluorescence intensity of lysates ws normalized by OD 280 nm.

Data set [6] has as its system ovarian carcinoma drug-sensitive A2780 cells. Kind of data set: Intracellular DOX uptake by A2780 cells under 1 MHz ultrasound (flow cytometry). In kind it is cell-based. The procedure:
Fluorescence histograms of the A2780 cells incubated or sonicated in the presence of DOX are shown. The initial concentration of cells ranged from 3×10^6 to 5×10^6 cells/ml as determined using a hemacytometer. After exposure to DOX (10 μg/ml to 50 μg/ml in various experiments) and ultrasound (15 to 30 s), cells were counted again to measure the degree of sonolysis, upon which they were centrifuged, washed with PBS, fixed with a 3% formalin or 2.5% glutaraldehide, and analyzed by flow cytometry. Fluorescence histograms were recorded with a FACScan flow cytometer (Beckton Dickinson) and analyzed using CellQuest software supplied by the manufacturer. A minimum of 10,000 events was analyzed to generate each histogram.
The experiments on the effect of ultrasound on the intracellular DOX uptake with and without micelles were always conducted in parallel, at the same day and using the same batch of the cells.
(In flow cytometry, cells or beads pass a laser one at a time.)

For data set [7], the system named is MDR ovarian carcinoma A2780/ADR cells. The experiment in a line: Growth inhibition / cell kill of MDR ovarian carcinoma cells with Pluronic and ultrasound. Format: cell-based. The conditions noted are these: for IC75: A2780/ADR. The procedure: as §1
As an example, when the MDR cell were incubated with drug-free 10% PLURONIC micelles for three hours, upon which they were sonicated for 10 minutes by 69-kHz ultrasound at 3.2 W/cm^2 and cultured for 72 hours, the growth of the MDR cell dropped to forty percent of the unsonicated non-incubated control.
For the MDR cells, PLURONIC and ultrasound effects are especially important. At the absence of micelles, only about forty percent of the MDR cells are killed at DOX or Rb concentrations as high as 100 μg/ml. However, when the MDR cells were incubated with 5 μg/ml DOX for three hours in the presence of a unimeric Pluronic solution followed by a 10-minute sonication by 69-kHz ultrasound at 3.2 W/cm^2, sixty six percent of the cells died upon subsequent cell culturing vs. fifty three percent without ultrasound; only fifteen percent of the MDR cells die upon incubation with 5 μg/ml DOX without Pluronic and ultrasound treatment.
Ultrasound-induced increased intracellular uptake was accompanied by a dramatic sensitization of the MDR cells to the action of DOX (FIG. 10). […] Even without ultrasound, IC50 of DOX in the MDR ovarian carcinoma cells dropped 50-fold in the presence of PLURONIC unimers and micelles.

The nature of data set [8]: Drug partitioning between PLURONIC micelles and polystyrene latex particles. Format: physicochemical. The procedure: To study solute release from PLURONIC micelles, the partitioning of the solute between the micelles and the surface of polystyrene latex particles was investigated. A spin probe, DSTA, or the drug, ruboxyl, was solubilized in PLURONIC P-105 solutions of various concentrations. A suspension of polystyrene latex particles (average diameter 0.9 μm, 50 μl/ml) was incubated with 1 ml of DSTA or ruboxyl solution in PLURONIC P-105, and depletion of the probe in the supernatant was measured by the EPR (for DSTA) or fluorescence (for ruboxyl) technique upon polystyrene particle separation.
An important question pertinent to this research was how tightly the solubilized drug was associated with PLURONIC micelles. To investigate this problem, ruboxyl adsorption on polystyrene latex particles was measured from molecular solutions of ruboxyl in PBS and from micellar PLURONIC solutions. Ruboxyl readily adsorbs onto polystyrene surfaces. About 90% of the drug is transferred onto polystyrene surface from ruboxyl solutions in PBS. PLURONIC micelles, however, compete for ruboxyl with polystyrene surfaces; only about 40% of ruboxyl solubilized in PLURONIC micelles (20 wt % solutions of PLURONIC P-105) is transferred onto the polystyrene surface, the remainder being retained within the PLURONIC micelles.

Data set [9] deals with leukosis, La, P-388, and L-1210; solid tumors. The conditions noted are these: P-388, L-1210 in mice, solid tumors in rats; cited from earlier work.
The subject of data set [10] is breast and colon carcinomas and bone sarcoma. The conditions noted are these: cited from earlier work.
A short description of data set [11]: Effects of PLURONIC micelles and ultrasound on drug uptake and cytotoxicity, other drugs. In kind it is cell-based. An excerpt:
It is important to note that the effects of PLURONIC micelles and ultrasound on drug uptake and cytotoxicity described above for DOX were also observed for another anthracycline drug, Ruboxyl. […] This implies that the new modality of drug delivery described here will have general applicability to a wide variety of drugs and drug delivery systems.

[12] abbreviates: PLURONIC concentration 0.1%, below CMC.
Setting [13] is: drug sequestered in dense PLURONIC P-105 micelles vs free drug.
Where [14] appears, read: absence of micelles, drug concentration 100 μg/ml.

Each structure is given as a SMILES string. In brackets after ≈: the same amount, converted by molar mass.

`COc1cccc2c1C(=O)c1c(O)c3c(c(O)c1C2=O)C[C@@](O)(C(=O)CO)C[C@@H]3O[C@H]1C[C@H](N)[C@H](O)[C@H](C)O1` [DOX, Doxorubicin]: the drug-DNA interaction entry in the data set with DNA is “lower drug-DNA interaction”. For the same molecule, the “life span vs conventional drug introduction” value with A2780 cells was “much longer”. The IC75 in data set [1] (A2780, P-105 0.1% (unimers)) is 1.3 µg/mL (≈ 2.39 µM); in [1] (A2780, P-105 10% (micelles)), 1.3 µg/mL (≈ 2.39 µM); in [1] (A2780, RPMI (no Pluronic)), 1.3 µg/mL (≈ 2.39 µM); in [7] (P-105 0.1% (unimers)) it was 12 ± 2 µg/mL (≈ 22.1 µM); in [7] (P-105 10% (micelles)), 16 ± 2 µg/mL (≈ 29.4 µM); in data set [7] (RPMI (no Pluronic)), greater than 100 µg/mL. Also, the effective drug dose entry with HL-60 cells [2] is recorded as “substantial decrease”. Also, the “power density required for 10% DOX release” value was found to be 7.2 W/cm^2 in data set [3] (1.0-MHz ultrasound), 0.058 W/cm^2 in data set [3] (20-kHz ultrasound) and 2.8 W/cm^2 in [3] (67-kHz ultrasound). Also, the “DOX uptake by other organs under ultrasound” value with A2780 tumor (3-MHz ultrasound) is recorded as “not affected”. Moreover, in the data set on A2780 tumor (DOX 6 mg/kg intravenously, 1 MHz or 3 MHz ultrasound 1.7 W/cm2), the “DOX uptake by cells of the sonicated tumor” value is reported as “dramatically enhanced”. The “fraction of MDR cells highly resistant to DOX” value in data set [4] is “about 30%”; in data set [7] (conventional medium, DOX 50 μg/ml), “about 55%”; in data set [7] (in the presence of PLURONIC micelles) it was “completely eliminated”. The “drug uptake by HL-60 cells” value is given as “somewhat enhanced” with HL-60 cells [5] (setting [12]) and “substantial decrease” in the data set on HL-60 cells [5] (setting [13]). Further, the “DOX uptake, sonicated vs unsonicated cells” value in data set [6] (sonicated 15 s vs unsonicated incubated 30 min, same DOX concentration) is given as “significantly higher”. Besides, the “intracellular uptake of DOX” value in [6] (sonication at 1 MHz, from PBS or RPMI 1640) is on record as “substantially increased”. Moreover, the MDR cells died result in data set [7] (5 μg/ml DOX three hours in unimeric Pluronic solution, 10-minute sonication 69-kHz 3.2 W/cm^2) is on record as “sixty six”; in [7] (5 μg/ml DOX three hours in unimeric Pluronic solution, without ultrasound), “fifty three”; in data set [7] (5 μg/ml DOX without Pluronic and ultrasound treatment), “fifteen”. Further, the MDR cells killed in data set [7] (PLURONIC micelle and ultrasound, DOX concentration 0.78 μg/ml) was 100%; in data set [7] (setting [14]), “about forty”. Besides, in data set [7] (presence of PLURONIC unimers and micelles, without ultrasound), the “drop of IC50 of DOX” value is on record as 50 fold.
In the case of `COc1cccc2c1C(=O)c1c(O)c3c(c(O)c1C2=O)C[C@@](O)(/C(C)=N/N=C1CC(C)(C)N(O)C(C)(C)C1)C[C@@H]3O[C@H]1C[C@H](N)[C@H](O)[C@H](C)O1.Cl` [Rb, ruboxyl], the “drug transferred onto polystyrene surface” value in data set [8] (from ruboxyl solutions in PBS) is “About 90%”; in [8] (solubilized in PLURONIC micelles (20 wt % PLURONIC P-105)), “about 40%”. For the same molecule, in the data set with DNA, the drug-DNA interaction entry is listed as “lower drug-DNA interaction”. The 75% effect concentration (IC75) in data set [1] (A2780, P-105 10% (micelles)) is 0.9 µg/mL; in data set [1] (A2780, RPMI (no Pluronic)) it was 1.5 µg/mL; in data set [7] (P-105 10% (micelles)), 17 ± 3 µg/mL; in data set [7] (RPMI (no Pluronic)), greater than 100 µg/mL. Moreover, in data set [9], the anti-tumor activity result is listed as “high”. For the same molecule, the clinical efficacy result in [10] (breast and colon carcinomas and bone sarcoma) was “effective”. In data set [10] (clinical trials), the cardiotoxicity result is “reduced”. Also, the “effects of PLURONIC micelles and ultrasound on drug uptake and cytotoxicity” value in data set [11] is on record as “also observed”. The figures for the “drug uptake by HL-60 cells” value in the data set with HL-60 cells [5] (setting [12]) and in the data set with HL-60 cells [5] (setting [13]) were “somewhat enhanced” and “substantial decrease”, respectively. Besides, the MDR cells killed entry in data set [7] (setting [14]) is “about forty”.
Regarding `CC(=O)O[C@H]1C(=O)[C@@]2(C)[C@H]([C@H](OC(=O)c3ccccc3)[C@]3(O)C[C@H](OC(=O)[C@H](O)[C@@H](NC(=O)c4ccccc4)c4ccccc4)C(C)=C1C3(C)C)[C@]1(OC(C)=O)CO[C@@H]1C[C@@H]2O` [taxol], the “effects of PLURONIC micelles and ultrasound on drug uptake and cytotoxicity” value in data set [11] is recorded as “promising results”.
